The text below walks through data of publication PMC5259778, “Candidate pheromone receptors of codling moth Cydia pomonella respond to pheromones and kairomones” (Scientific Reports, 2017).

For one assay, the system named is CpomOR6a. The assay can be described thus: Single sensillum recordings, CpomOR6a expressed in Drosophila at1 OSNs. Format: cell-based, Cydia pomonella. The settings on record: 10 μg per stimulus. The source says: (§1) To perform heterologous expression in D. melanogaster OSNs, CpomORs were amplified using primers in Table 2 and purified PCR products were cloned into the PCR8/GW/TOPO plasmid (Invitrogen) following the recommended protocol. Cassettes with inserts were then transferred from their PCR8/GW/TOPO plasmids to the destination vector (pUASg-HA.attB, constructed by E. Furger and J. Bischof, kindly provided by the Basler group, Zürich), using the Gateway LR Clonase II kit (Invitrogen). The integrity and orientation of inserts was confirmed by sequencing (Sanger sequencer, 3730xl). Transformant UAS-CpomOR3 and UAS-CpomOR1 lines were generated by Best Gene (Chino Hills, CA, USA), using the PhiC31 integrase system, while the transformant UAS-CpomOR6a line was generated in our labs. Briefly, recombinant pUASg-HA.attB-CpomOR plasmids were injected into embryos of a D. melanogaster line containing an attP insertion site within the third chromosome (genotype y1 M{vas-int.Dm}ZH-2A w*; M{3xP3-RFP.attP}ZH-86Fb), leading to non-random integration. To drive expression of CpomORs in at1 OSNs in place of the endogenous receptor Or67d, transformant UAS-CpomOR lines were crossed to the knock-in Or67d^GAL4 line (kindly provided by Barry Dickson) to generate double homozygous lines w^+;UAS-CpomOR; Or67d^GAL4. Additionally, to drive expression of CpomOR3 in ab3A OSNs, the UAS-CpomOR3 line was crossed to the Δhalo;Or22a-Gal4 mutant line[20][57]. To verify insertion of UAS-CpomORs constructs into the genome, gDNA was extracted and used as template in PCR with primers for the full ORF of CpomORs (Table 2).
(§2) CpomOR1 and CpomOR6a expressed in at1 OSNs, and CpomOR3 expressed in ab3A OSNs, were tested through single sensillum recordings (SSR). Three to 8-day-old flies were immobilized in 100 μL pipette tips with only the top half of the head protruding. The left antenna of each insect was gently pushed with a glass capillary against a double-sided adhesive tape placed on a piece of glass. This piece of glass and the pipette tip were fixed with dental wax on a microscope slide. Electrolytically sharpened tungsten electrodes (Harvard Apparatus Ltd, Edenbridge, United Kingdom) were used to penetrate the insect´s body. The reference electrode was manually inserted in the right eye of the fly, while the recording electrode was manoeuvred with a DC-3K micromanipulator equipped with a PM-10 piezo translator (Märzhäuser Wetzler GmbH, Wetzler, Germany) and inserted at the base of the determined sensilla. Signals coming from the olfactory sensory neurons were amplified 10 times with a probe (INR-02, Syntech, Hilversum, the Netherlands), digitally converted through an IDAC-4-USB (Syntech) interface, and visualized and analysed with the software Autospike v. 3.4 (Syntech). A constant flow of 0.65 m/s of humidified air (charcoal-filtered) was delivered through a glass tube to the antenna. The panel of odorants was given to the insect by inserting pipettes containing a piece of filter paper with the correspondent stimulus in a lateral hole of the glass tube and puffing a flow of 2.5 mL of air during 0.5 s through the pipette. For CpomOR1 and CpomOR6a the panel of odorants was prepared by applying 10 μL of a solution of 1.0 μg/μL of the compounds in Supplementary Dataset S2 and Supplementary Dataset S3, for a total amount of 10 μg per stimulus. In the case of CpomOR3, a similar dilution process was used for the dose response experiments of ethyl-(E,Z)-2,4-decadienoate and methyl-(E,Z)-2,4-decadienoate, as well for dose response of experiments of codlemone acetate in CpomOR6a. Compounds were diluted from concentrations ranging from 0.01 ng/μL to 10 μg/μL in decadic steps, allowing reaching concentrations from 100 pg to 100 μg per stimulus when 10 μL of the dilution was applied in the piece of filter paper. […]

Another assay relates to CpomOR1. The assay can be described thus: Single sensillum recordings, CpomOR1 expressed in Drosophila at1 OSNs. Format: cell-based, Cydia pomonella. To be noted: 10 μg per stimulus.
Source text: as §1, §2

The target of a further assay is T1, CpomOrco + OR3 (Cydia pomonella, UniProt H9A5M3).
T1 sequence (H9A5M3 1-426): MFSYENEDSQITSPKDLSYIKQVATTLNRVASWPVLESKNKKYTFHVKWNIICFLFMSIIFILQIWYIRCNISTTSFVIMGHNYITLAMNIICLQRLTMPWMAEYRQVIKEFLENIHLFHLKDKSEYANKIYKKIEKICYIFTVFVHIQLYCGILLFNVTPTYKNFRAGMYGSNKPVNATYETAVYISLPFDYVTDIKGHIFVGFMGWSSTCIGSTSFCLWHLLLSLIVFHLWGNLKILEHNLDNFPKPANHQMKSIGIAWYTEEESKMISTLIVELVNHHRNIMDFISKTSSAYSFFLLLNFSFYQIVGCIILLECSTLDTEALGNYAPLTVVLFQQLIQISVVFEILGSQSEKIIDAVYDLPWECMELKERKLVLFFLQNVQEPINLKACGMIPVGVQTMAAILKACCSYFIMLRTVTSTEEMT
T1 sequence (H9A5M2 1-473 partner): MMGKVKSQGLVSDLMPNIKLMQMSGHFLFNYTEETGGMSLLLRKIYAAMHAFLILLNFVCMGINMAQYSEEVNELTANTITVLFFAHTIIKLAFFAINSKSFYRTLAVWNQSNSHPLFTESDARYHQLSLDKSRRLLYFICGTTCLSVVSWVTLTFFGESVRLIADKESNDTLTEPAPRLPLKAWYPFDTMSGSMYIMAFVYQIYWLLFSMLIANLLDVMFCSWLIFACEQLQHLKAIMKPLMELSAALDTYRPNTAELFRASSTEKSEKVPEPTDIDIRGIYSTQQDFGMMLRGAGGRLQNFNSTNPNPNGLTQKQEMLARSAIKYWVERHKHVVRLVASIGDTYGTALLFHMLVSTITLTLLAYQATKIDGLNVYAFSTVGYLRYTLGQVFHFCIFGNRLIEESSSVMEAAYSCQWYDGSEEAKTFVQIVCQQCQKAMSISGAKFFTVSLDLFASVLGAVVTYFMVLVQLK
The assay can be described thus: Calcium imaging of HEK293T cells expressing CpomOrco + OR3. Format: cell-based. To be noted: for amplitude of the calcium response (mean of the maximum response ± SEM): 500 μM, n = 151; for EC50: calcium response normalized to 250 μM VUAA3.

The test system of the next assay is CpomOR3. The assay can be described thus: Single sensillum recordings, CpomOR3 expressed in Drosophila ab3A OSNs. Type of assay: cell-based, Cydia pomonella. The settings on record: dose loaded in the stimulus cartridge. The source says: To perform heterologous expression in D. melanogaster OSNs, CpomORs were amplified using primers in Table 2 and purified PCR products were cloned into the PCR8/GW/TOPO plasmid (Invitrogen) following the recommended protocol. Cassettes with inserts were then transferred from their PCR8/GW/TOPO plasmids to the destination vector (pUASg-HA.attB, constructed by E. Furger and J. Bischof, kindly provided by the Basler group, Zürich), using the Gateway LR Clonase II kit (Invitrogen). The integrity and orientation of inserts was confirmed by sequencing (Sanger sequencer, 3730xl). […]
CpomOR1 and CpomOR6a expressed in at1 OSNs, and CpomOR3 expressed in ab3A OSNs, were tested through single sensillum recordings (SSR). […] The reference electrode was manually inserted in the right eye of the fly, while the recording electrode was manoeuvred with a DC-3K micromanipulator equipped with a PM-10 piezo translator (Märzhäuser Wetzler GmbH, Wetzler, Germany) and inserted at the base of the determined sensilla. Signals coming from the olfactory sensory neurons were amplified 10 times with a probe (INR-02, Syntech, Hilversum, the Netherlands), digitally converted through an IDAC-4-USB (Syntech) interface, and visualized and analysed with the software Autospike v. […]

The subject of another assay is CpomOrco + OR complexes. The assay can be described thus: Calcium imaging of HEK293T cells expressing heteromeric CpomOrco + OR complexes. Type of assay: cell-based, Cydia pomonella. As to the method:
HEK293T cells were grown in HEK cell media [Dulbecco’s modified Eagle’s medium containing 10% fetal bovine serum (MP Biomedicals, Solon, OH, USA), 2.0 mM L-glutamine, and 100 μg/mL Penicillin/Streptomycin (Invitrogen)] at 37 °C and 5% CO2. To test transient expression of CpomORs for calcium imaging or patch-clamp recording experiments, 35-mm petri dishes containing semi-confluent HEK293T cells were transiently transfected. To transfect cells with CpomOrco, we used 1.0 μg of pcDNA5/TO/CpomOrco DNA. In order to promote expression of the OR[51], we used double aliquots for pcDNA5/TO/CpomOR DNAs (2.0 μg), combined with 1.0 μg of pcDNA5/TO/CpomOrco for co-transfections (CpomOrco + ORs). To report expression for calcium imaging experiments, 1.0 μg of a separate plasmid DNA [pEBFP2-Nuc, a gift from Robert Campbell (Addgene plasmid # 14893[52])] carrying the coding sequence for a blue fluorescent protein (BFP) was used. In patch-clamp recordings, 1.0 μg of a separate plasmid DNA (pXOOM, Clontech) carrying the coding sequence for a green fluorescent protein (GFP) was used to report expression. In order to report candidate OR-expressing cells, expression of both fluorescent reporter genes was under the regulation of the same promoter for CpomOR genes (CMV). Transfection DNAs were dissolved in 100 μL sterile DMEM, mixed with 3.0 μL Calfectin (SignaGen, Rockville, MD, USA) following the recommended protocol. To estimate transfection efficiency, a parallel transfection was conducted using the positive control vector pcDNA5/TO/LACZ (Invitrogen) and staining with 0.1% XGal[53]. […]
(§3) Fluorescence imaging was performed using Imaging Workbench 6 software (INDEC BioSystems, Santa Clara, CA, USA). Each cell was assigned a region of interest (ROI) and changes in fluorescence intensity within each ROI were measured and expressed as the fractional change in fluorescence intensity (dF) or in some cases as dF/F0 where F0 is the basal fluorescence level before agonist application. […] Continuous traces of multiple responses were compensated for slow drift of the baseline fluorescence when necessary. […]

Another assay concerns the target CpomOrco (Cydia pomonella, UniProt H9A5M2). The assay can be described thus: Calcium imaging of HEK293T cells expressing homomeric CpomOrco. Format: cell-based. To be noted: peak amplitudes normalized to response at 1000 μM agonist, read-out: [A]1/2 half-effective concentration of agonist, calcium response. The protocol:
HEK293T cells were grown in HEK cell media [Dulbecco’s modified Eagle’s medium containing 10% fetal bovine serum (MP Biomedicals, Solon, OH, USA), 2.0 mM L-glutamine, and 100 μg/mL Penicillin/Streptomycin (Invitrogen)] at 37 °C and 5% CO2. To test transient expression of CpomORs for calcium imaging or patch-clamp recording experiments, 35-mm petri dishes containing semi-confluent HEK293T cells were transiently transfected. To transfect cells with CpomOrco, we used 1.0 μg of pcDNA5/TO/CpomOrco DNA. In order to promote expression of the OR[51], we used double aliquots for pcDNA5/TO/CpomOR DNAs (2.0 μg), combined with 1.0 μg of pcDNA5/TO/CpomOrco for co-transfections (CpomOrco + ORs). […]
as §3

SMILES strings stand for the structures.

Protocol for CpomOrco + OR3: HEK293T cells were grown in HEK cell media [Dulbecco’s modified Eagle’s medium containing 10% fetal bovine serum (MP Biomedicals, Solon, OH, USA), 2.0 mM L-glutamine, and 100 μg/mL Penicillin/Streptomycin (Invitrogen)] at 37 °C and 5% CO2. To test transient expression of CpomORs for calcium imaging or patch-clamp recording experiments, 35-mm petri dishes containing semi-confluent HEK293T cells were transiently transfected. To transfect cells with CpomOrco, we used 1.0 μg of pcDNA5/TO/CpomOrco DNA. In order to promote expression of the OR[51], we used double aliquots for pcDNA5/TO/CpomOR DNAs (2.0 μg), combined with 1.0 μg of pcDNA5/TO/CpomOrco for co-transfections (CpomOrco + ORs). […] In order to report candidate OR-expressing cells, expression of both fluorescent reporter genes was under the regulation of the same promoter for CpomOR genes (CMV). Transfection DNAs were dissolved in 100 μL sterile DMEM, mixed with 3.0 μL Calfectin (SignaGen, Rockville, MD, USA) following the recommended protocol.
Transfections were conducted overnight. HEK cell media was replaced with 1.0 mL fresh media to incubate cells at 37 °C for up to 6 h, at which point part of the cell culture was spread in the middle of a 35-mm plate as individual cells or small clusters. After 12 h of incubation at 37 °C and 5% CO2, cells were rinsed at the sides with 2.0 mL fresh HEK media. Cells were allowed to recover for at least 1 h prior to calcium imaging.
After incubation, the buffer was removed and cells were rinsed with 4.0 mL fresh HEK Ca^++ Ringer (mM: 140 NaCl, 2.0 CaCl2, 10 HEPES, pH 7.5), and placed on the stage of an inverted microscope (Olympus IX-71, Olympus Corp., Tokyo, Japan) equipped with a cooled CCD camera (ORCA R2, Hamamatsu, Hamamatsu City, Japan). Cells were continuously superfused with Ca^++ Ringer using two gravity fed perfusion contours. The stimulating contour washing the cells (~250 μL/min) was switched rapidly to the stimulus contour using a multi-channel rapid solution changer (RSC-160, Bio-Logic, Claix, France) under the software control of Clampex 9 (Molecular Devices, Sunnyvale, CA, USA).
Fluorescence imaging was performed using Imaging Workbench 6 software (INDEC BioSystems, Santa Clara, CA, USA). Each cell was assigned a region of interest (ROI) and changes in fluorescence intensity within each ROI were measured and expressed as the fractional change in fluorescence intensity (dF) or in some cases as dF/F0 where F0 is the basal fluorescence level before agonist application. […] Continuous traces of multiple responses were compensated for slow drift of the baseline fluorescence when necessary. All recordings were performed at room temperature (22–25 °C).
Compounds were diluted in either DMSO or ethanol (Sigma Aldrich) depending on their solubility properties. […]

Turning to `CCCCC/C=C\C=C\C(=O)OCC` [(E,Z)-ED, ethyl-(E,Z)-2,4-decadienoate], the Spike/s in the assay on CpomOR6a (replicate 1) was 2 Spike/s; in the assay on CpomOR6a (replicate 2), -2 Spike/s; with CpomOR6a (replicate 3) it was 8 Spike/s; in the assay on CpomOR6a (replicate 4), 2 Spike/s; with CpomOR6a (replicate 5), -14 Spike/s; with CpomOR6a (replicate 6) it was 8 Spike/s. For the same molecule, the values for the Spike/s in the assay on CpomOR6a (replicate 7), in the assay with CpomOR6a (replicate 8) and in the assay on CpomOR6a (replicate 9) were 4 Spike/s, -2 Spike/s and 14 Spike/s, respectively. Further, the Spikes/s in the assay on CpomOR1 (replicate 1) was -2 Spikes/s; in the assay with CpomOR1 (replicate 2) it was 2 Spikes/s; in the assay with CpomOR1 (replicate 3) it was 2 Spikes/s; in the assay with CpomOR1 (replicate 4) it was 2 Spikes/s; in the assay with CpomOR1 (replicate 5), 10 Spikes/s. The “amplitude of the calcium response (mean of the maximum response ± SEM)” value on CpomOrco + OR3 is recorded as 15.07 ± 9.48 dF. Besides, the EC50 on CpomOrco + OR3 came to 454 ± 120 µM. The “minimum dose to elicit a response significantly different from the solvent” value in the assay with CpomOR3 is 100 ng.
Consider `CCCCC/C=C\C=C\C(=O)OC` [(E,Z)-MD, methyl (E,Z)-2,4-decadienoate], for which, at CpomOrco + OR3, the “amplitude of the calcium response (mean of the maximum response ± SEM)” value was 10.40 ± 5.91 dF and the EC50 turned out to be 1080 ± 113 µM. Moreover, the “minimum dose to elicit a response significantly different from the solvent” value in the assay on CpomOR3 came out at 10000 ng.
Take `CC(C)CN(C)c1nc(N)c(C(=O)N=C(N)N)nc1Cl` [MIA, 5-(N-methyl-N-isobutyl) amiloride]: the “block of the VUAA3 activated calcium signal” value in the assay with CpomOrco + OR complexes (MIA 100 μM applied extracellularly, all heteromeric complexes, only partially reversible) is “almost completely blocked”.
On to `CCc1ccc(NC(=O)CSc2nnc(-c3cccnc3)n2CC)cc1` [VUAA1, acetamide,N-(4-ethylphenyl)-2-[[4-ethyl-5-(3-pyridinyl)-4H-1,2,4-triazol-3-yl]thio]-], for which the EC50 in the assay with CpomOrco + OR complexes (heteromeric complexes, peak amplitudes normalized to response at 1000 μM agonist, read-out: [A]1/2 half-effective concentration of agonist, calcium response) is roughly 150 µM; on CpomOrco, roughly 520 µM.
